Data taken from PubChem BioAssay (NCI).
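How tested: cells in 96-well plates exposed to compound for 48 hours at five concentrations. GI50 is the concentration that inhibits growth by half. Definition used: TGI = concentration required for complete inhibition of growth.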

Legend:
Test in all cases: NCI-60 cell line screen, 48 h
[1] = test system: CCRF-CEM leukemia
[2] = test system: HS 578T breast
[3] = test system: T-47D breast
[4] = test system: PC-3 prostate
[5] = test system: MCF7 breast
[6] = test system: K-562 leukemia
[7] = test system: RPMI-8226 leukemia
[8] = test system: SF-295 CNS
[9] = test system: SK-OV-3 ovarian
[10] = test system: MDA-MB-435
[11] = test system: UACC-62 melanoma
[12] = test system: A549 NSCLC
[13] = test system: SF-268 CNS
[14] = test system: MDA-MB-231 breast
[15] = test system: TK-10 renal
[16] = test system: KM12 colon
[17] = test system: NCI-H460 lung
[18] = test system: IGROV1 ovarian
[19] = test system: SR leukemia
[20] = test system: A498 renal
[21] = test system: OVCAR-3 ovarian
[22] = test system: HCT-15 colon
[23] = test system: NCI-H226 lung
[24] = test system: SN12C renal
[25] = test system: MALME-3M melanoma
[26] = test system: MOLT-4 leukemia
[27] = test system: SF-539 CNS
[28] = test system: UO-31 renal
[29] = test system: NCI-H23 lung
[30] = test system: SNB-19 CNS
[31] = test system: OVCAR-4 ovarian
[32] = test system: U251 CNS
[33] = test system: HCT-116 colon
[34] = test system: UACC-257 melanoma
[35] = test system: NCI/ADR-RES ovarian
[36] = test system: SW-620 colon
[37] = test system: HL-60(TB) leukemia
[38] = test system: HOP-62 NSCLC
[39] = test system: SK-MEL-28 melanoma
[40] = test system: 786-0 renal
[41] = test system: NCI-H522 lung
[42] = test system: DU-145 prostate
[43] = test system: M14 melanoma
[44] = test system: SK-MEL-2 melanoma
[45] = test system: RXF 393 renal
[46] = test system: LOX IMVI melanoma
[47] = test system: OVCAR-5 ovarian
[48] = test system: SNB-75 CNS
[49] = test system: BT-549 breast
[50] = test system: ACHN renal
[51] = test system: SK-MEL-5 melanoma
[52] = test system: OVCAR-8 ovarian
[53] = test system: HOP-92 NSCLC
[54] = test system: HT29 colon
[55] = test system: HCC-2998 colon
[56] = test system: COLO 205 colon
[57] = test system: EKVX NSCLC
[58] = test system: CAKI-1 renal

SMILES: CNCCCNCCCN1C(=O)c2ccc3c4c(ccc(c24)C1=O)C(=O)N(CCCNCc1ccccc1OC)C3=O
- GI50 [1]: 465 nM
- TGI [1]: 4530 nM
- GI50 [2]: 3020 nM
- TGI [2]: 28500 nM
- GI50 [3]: 1250 nM
- TGI [3]: 4100 nM
- GI50 [4]: 1600 nM
- TGI [4]: 10100 nM
- GI50 [5]: 512 nM
- TGI [5]: 3210 nM
- GI50 [6]: 408 nM
- TGI [6]: 2900 nM
- GI50 [7]: 1640 nM
- TGI [7]: 9440 nM
- GI50 [8]: 894 nM
- TGI [8]: 2390 nM
- GI50 [9]: 2950 nM
- TGI [9]: 23700 nM
- GI50 [10]: 1070 nM
- TGI [10]: 2910 nM
- GI50 [11]: 1520 nM
- TGI [11]: 3510 nM
- GI50 [12]: 577 nM
- TGI [12]: 4970 nM
- GI50 [13]: 1030 nM
- TGI [13]: 9020 nM
- GI50 [14]: 2900 nM
- TGI [14]: 14000 nM
- GI50 [15]: 2580 nM
- TGI [15]: 14100 nM
- GI50 [16]: 1180 nM
- TGI [16]: 3360 nM
- GI50 [17]: 429 nM
- TGI [17]: 2860 nM
- GI50 [18]: 1450 nM
- TGI [18]: 6040 nM
- GI50 [19]: 270 nM
- TGI [19]: 2450 nM
- GI50 [20]: 1540 nM
- TGI [20]: 8910 nM
- GI50 [21]: 1370 nM
- TGI [21]: 9230 nM
- GI50 [22]: 2360 nM
- TGI [22]: 12200 nM
- GI50 [23]: 1420 nM
- TGI [23]: 4630 nM
- GI50 [24]: 1460 nM
- TGI [24]: 3410 nM
- GI50 [25]: 633 nM
- TGI [25]: 1960 nM
- GI50 [26]: 534 nM
- TGI [26]: 3550 nM
- GI50 [27]: 782 nM
- TGI [27]: 2290 nM
- GI50 [28]: 5880 nM
- TGI [28]: 27500 nM
- GI50 [29]: 1260 nM
- TGI [29]: 4120 nM
- GI50 [30]: 1680 nM
- TGI [30]: 11100 nM
- GI50 [31]: 642 nM
- TGI [31]: 2040 nM
- GI50 [32]: 1610 nM
- TGI [32]: 7670 nM
- GI50 [33]: 270 nM
- TGI [33]: 1210 nM
- GI50 [34]: 1350 nM
- TGI [34]: 2720 nM
- GI50 [35]: 12100 nM
- TGI [35]: 71100 nM
- GI50 [36]: 365 nM
- TGI [36]: 5120 nM
- GI50 [37]: 2000 nM
- TGI [37]: 7090 nM
- GI50 [38]: 1240 nM
- TGI [38]: 4440 nM
- GI50 [39]: 1010 nM
- TGI [39]: 2790 nM
- GI50 [40]: 1270 nM
- TGI [40]: 4560 nM
- GI50 [41]: 1230 nM
- TGI [41]: 2830 nM
- GI50 [42]: 1050 nM
- TGI [42]: 2390 nM
- GI50 [43]: 1320 nM
- TGI [43]: 2790 nM
- GI50 [44]: 1750 nM
- TGI [44]: 3970 nM
- GI50 [45]: 1890 nM
- TGI [45]: 5710 nM
- GI50 [46]: 1520 nM
- TGI [46]: 9750 nM
- GI50 [47]: 1250 nM
- TGI [47]: 4140 nM
- GI50 [48]: 1110 nM
- TGI [48]: 2510 nM
- GI50 [49]: 5030 nM
- TGI [49]: 18700 nM
- GI50 [50]: 500 nM
- TGI [50]: 3960 nM
- GI50 [51]: 1100 nM
- TGI [51]: 2320 nM
- GI50 [52]: 797 nM
- TGI [52]: 9430 nM
- GI50 [53]: 2130 nM
- TGI [53]: 8050 nM
- GI50 [54]: 381 nM
- TGI [54]: 1950 nM
- GI50 [55]: 1930 nM
- TGI [55]: 6420 nM
- GI50 [56]: 498 nM
- TGI [56]: 1850 nM

SMILES: COc1ccc(N(C)c2c3ccccc3nc3[nH]c4ccccc4c23)cc1
- GI50 [2]: 2550 nM
- TGI [2]: 11000 nM
- GI50 [57]: 1060 nM
- TGI [57]: 4120 nM
- GI50 [3]: 986 nM
- TGI [3]: 2610 nM
- GI50 [4]: 424 nM
- TGI [4]: 2630 nM
- GI50 [5]: 168 nM
- TGI [5]: 655 nM
- GI50 [6]: 558 nM
- TGI [6]: 16300 nM
- GI50 [58]: 774 nM
- TGI [58]: 3070 nM
- GI50 [7]: 139 nM
- TGI [7]: 528 nM
- GI50 [8]: 387 nM
- TGI [8]: 2590 nM
- GI50 [9]: 778 nM
- TGI [9]: 4520 nM
- GI50 [10]: 1120 nM
- TGI [10]: 3220 nM
- GI50 [11]: 875 nM
- TGI [11]: 2640 nM
- GI50 [12]: 724 nM
- TGI [12]: 9190 nM
- GI50 [13]: 373 nM
- TGI [13]: 2270 nM
- GI50 [14]: 616 nM
- TGI [14]: 2050 nM
- GI50 [15]: 681 nM
- TGI [15]: 1630 nM
- GI50 [16]: 296 nM
- TGI [16]: 1240 nM
- GI50 [17]: 151 nM
- TGI [17]: 7120 nM
- GI50 [18]: 2190 nM
- TGI [18]: 13500 nM
- GI50 [19]: 186 nM
- TGI [19]: 50000 nM
- GI50 [20]: 939 nM
- TGI [20]: 2610 nM
- GI50 [21]: 261 nM
- TGI [21]: 1160 nM
- GI50 [22]: 2290 nM
- TGI [22]: 9300 nM
- GI50 [23]: 900 nM
- TGI [23]: 3990 nM
- GI50 [24]: 392 nM
- TGI [24]: 1530 nM
- GI50 [26]: 88.3 nM
- TGI [26]: 50000 nM
- GI50 [27]: 354 nM
- TGI [27]: 1310 nM
- GI50 [28]: 2830 nM
- TGI [28]: 22200 nM
- GI50 [29]: 702 nM
- TGI [29]: 2040 nM
- GI50 [30]: 634 nM
- TGI [30]: 5620 nM
- GI50 [32]: 525 nM
- TGI [32]: 2390 nM
- GI50 [33]: 279 nM
- TGI [33]: 1010 nM
- GI50 [34]: 3480 nM
- TGI [34]: 10000 nM
- GI50 [35]: 2950 nM
- TGI [35]: 9910 nM
- GI50 [36]: 582 nM
- TGI [36]: 26400 nM
- GI50 [37]: 112 nM
- TGI [37]: 466 nM
- GI50 [38]: 407 nM
- TGI [38]: 1790 nM
- GI50 [39]: 3860 nM
- TGI [39]: 21800 nM
- GI50 [40]: 444 nM
- TGI [40]: 1900 nM
- GI50 [41]: 4980 nM
- TGI [41]: 9550 nM
- GI50 [42]: 675 nM
- TGI [42]: 3690 nM
- GI50 [43]: 837 nM
- TGI [43]: 1670 nM
- GI50 [44]: 6160 nM
- TGI [44]: 26100 nM
- GI50 [45]: 5400 nM
- TGI [45]: 22300 nM
- GI50 [46]: 550 nM
- TGI [46]: 1580 nM
- GI50 [47]: 917 nM
- TGI [47]: 4570 nM
- GI50 [48]: 5190 nM
- TGI [48]: 23600 nM
- GI50 [49]: 1240 nM
- TGI [49]: 4390 nM
- GI50 [50]: 558 nM
- TGI [50]: 2160 nM
- GI50 [51]: 835 nM
- TGI [51]: 2240 nM
- GI50 [52]: 798 nM
- TGI [52]: 7420 nM
- GI50 [53]: 1070 nM
- TGI [53]: 4490 nM
- GI50 [54]: 617 nM
- TGI [54]: 10300 nM
- GI50 [55]: 268 nM
- TGI [55]: 1020 nM
- GI50 [56]: 347 nM
- TGI [56]: 6130 nM
